The results in this text go back to patent US6521670B1, “Insect control method and composition” (BioAdvantage, Inc., priority 2000, dated 2003).

The assay has as its system flies, bees, wasps, and other winged insects. Kind of assay: vaporized 1,4-DMN treatment of a closed potato storage facility. The assay is classed as in vivo. The method, then:
The concentration of vapor of 1,4-DMN in the atmosphere of the storage facility was rather low. […] In the experiment, 500 milliliters and 188 milliliters of 1,4-DMN were vaporized and used. Both concentrations were effective. The facility was in a closed state for about 48 hours.
The ventilation system of the storage facility had been shut off so that there was no fresh air entering the building and the building was not being evacuated during the 1,4-DMN vapor treatment. The effect of the 1,4-DMN on insects within the storage facility was fairly immediate with substantially all the insects being killed within about 24 hours. In regions or facilities with dangerous insects, or where there is a large concentration of less-dangerous insects, such as bees, wasps and the like, which would create risks to workers, a closed facility may be treated to make it safe. Dangerous insects such as spiders, scorpions and the like may also effectively be treated in this manner with 1,4-DMN.

Regarding `Cc1ccc(C)c2ccccc12` [1,4-DMN, 1,4-dimethylnaphthalene], the “time until substantially all the insects were killed” value (1,4-DMN vapor treatment, closed storage facility without ventilation) was no more than 24 h. The “insecticidal effectiveness of vapor treatment” value is on record as “effective” (188 milliliters of 1,4-DMN vaporized, head space about 9,000 cubic feet, closed about 48 hours) and “effective” (500 milliliters of 1,4-DMN vaporized, head space about 9,000 cubic feet, closed about 48 hours). For the same molecule, the “effect of vaporized 1,4-DMN on insects contained within a potato storage facility” value (vapor, closed facility of approximately 10,000 cubic feet, head space about 9,000 cubic feet, closed about 48 hours, ventilation shut off) is “killed or placed in a state of stupor”.
